Measurements published in ChEMBL document CHEMBL4507259 (2021).

What was measured:
[1] = target: Histone acetyltransferase KAT6A (Homo sapiens) (UniProt Q92794); test: MYST3 (HAT) CEREP ligand profiling; conditions: Compound concentration 10.0 uM
[2] = target: Adenosine receptor A3 (Homo sapiens) (UniProt P0DMS8); test: A3 (h) CEREP ligand profiling; conditions: filed as agonist, Compound concentration 10.0 uM
U-2940 = test: U2940 cell line Proliferation assay; type: functional, Homo sapiens; conditions: Compound concentration 10 uM; time 3 day
SK-MEL-2 = test: SKMEL2 cell line Proliferation assay; type: functional, Homo sapiens; conditions: Compound concentration 10 uM; time 5 day
CHL-1 = test: CHL1 cell line Proliferation assay; type: functional, Homo sapiens; conditions: Compound concentration 10 uM; time 5 day
AMO1 = test: AMO-1 cell line Proliferation assay; type: functional, Homo sapiens; conditions: Compound concentration 10 uM; time 3 day
NCI-H522 = test: H522 cell line Proliferation assay; type: functional, Homo sapiens; conditions: Compound concentration 10 uM; time 3 day
NCI-H1417 = test: H1417 cell line Proliferation assay; type: functional, Homo sapiens; conditions: Compound concentration 10 uM; time 4 day
4T1 = test: 4T1 (mouse) cell line Proliferation assay; type: functional; conditions: Compound concentration 10 uM; time 5 day
[3] = target: Histone acetyltransferase type B catalytic subunit (Homo sapiens) (UniProt O14929); test: HAT1 (HAT) CEREP ligand profiling; conditions: Compound concentration 10.0 uM
Histone acetyltransferase type B catalytic subunit (Homo sapiens), sequence (O14929 2-419 limits assumed): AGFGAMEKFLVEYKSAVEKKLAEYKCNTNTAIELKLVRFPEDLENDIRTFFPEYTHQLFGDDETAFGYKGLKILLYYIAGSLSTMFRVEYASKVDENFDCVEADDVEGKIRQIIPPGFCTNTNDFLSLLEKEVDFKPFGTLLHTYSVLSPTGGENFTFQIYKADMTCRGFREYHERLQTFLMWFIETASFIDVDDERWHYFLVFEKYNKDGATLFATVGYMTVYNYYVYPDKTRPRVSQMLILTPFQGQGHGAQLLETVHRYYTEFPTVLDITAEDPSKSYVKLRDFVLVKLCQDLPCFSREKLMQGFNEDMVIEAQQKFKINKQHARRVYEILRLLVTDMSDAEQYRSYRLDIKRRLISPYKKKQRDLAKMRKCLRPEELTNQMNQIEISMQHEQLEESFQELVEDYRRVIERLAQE

MOLT-4 = test: MOLT-4 cell line Proliferation assay; type: functional, Homo sapiens; conditions: Compound concentration 10 uM; time 3 day
NCI-H146 = test: H146 cell line Proliferation assay; type: functional, Homo sapiens; conditions: Compound concentration 10 uM; time 4 day
HCC38 = test: HCC38 cell line Proliferation assay; type: functional, Homo sapiens; conditions: Compound concentration 10 uM; time 5 day
COR-L47 = test: Cor-L47 cell line Proliferation assay; type: functional, Homo sapiens; conditions: Compound concentration 10 uM; time 4 day
[4] = target: Prostaglandin G/H synthase 2 (Homo sapiens) (UniProt P35354); test: COX2(h) CEREP ligand profiling; conditions: Compound concentration 10.0 uM
LNCaP-Clone-FGC = test: LnCaP -FGC cell line Proliferation assay; type: functional, Homo sapiens; conditions: Compound concentration 10 uM; time 5 day
NCI-H1373 = test: H1373 cell line Proliferation assay; type: functional, Homo sapiens; conditions: Compound concentration 10 uM; time 3 day
RPMI-8226 = test: RPMI-8226 cell line Proliferation assay; type: functional, Homo sapiens; conditions: Compound concentration 10 uM; time 3 day
COLO-679 = test: Colo679 cell line Proliferation assay; type: functional, Homo sapiens; conditions: Compound concentration 10 uM; time 5 day
RCK8 = test: RCK8 cell line Proliferation assay; type: functional, Homo sapiens; conditions: Compound concentration 10 uM; time 3 day
[5] = target: Adenosine receptor A1 (Homo sapiens) (UniProt P30542); test: A1 (h) CEREP ligand profiling; conditions: filed as antagonist, Compound concentration 10.0 uM
Adenosine receptor A1 (Homo sapiens), sequence (P30542 whole entry): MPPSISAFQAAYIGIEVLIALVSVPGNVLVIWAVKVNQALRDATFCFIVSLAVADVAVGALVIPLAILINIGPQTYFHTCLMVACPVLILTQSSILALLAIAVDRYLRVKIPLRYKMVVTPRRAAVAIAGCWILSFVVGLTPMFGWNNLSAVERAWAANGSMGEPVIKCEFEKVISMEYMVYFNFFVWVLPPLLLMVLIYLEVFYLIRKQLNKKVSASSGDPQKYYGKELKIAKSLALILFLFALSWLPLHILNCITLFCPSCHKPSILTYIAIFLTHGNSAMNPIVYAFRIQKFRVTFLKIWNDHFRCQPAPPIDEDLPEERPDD

KARPAS-299 = test: KARPAS-299 cell line Proliferation assay; type: functional, Homo sapiens; conditions: Compound concentration 10 uM; time 3 day
NCI-H661 = test: H661 cell line Proliferation assay; type: functional, Homo sapiens; conditions: Compound concentration 10 uM; time 3 day
NCI-H441 = test: H441 cell line Proliferation assay; type: functional, Homo sapiens; conditions: Compound concentration 10 uM; time 3 day
NCI-H1836 = test: H1836 cell line Proliferation assay; type: functional, Homo sapiens; conditions: Compound concentration 10 uM; time 4 day
SU-DHL-8 = test: SuDHL8 cell line Proliferation assay; type: functional, Homo sapiens; conditions: Compound concentration 10 uM; time 3 day
ULA = test: ULA cell line Proliferation assay; type: functional, Homo sapiens; conditions: Compound concentration 10 uM; time 3 day
[6] = target: Calcitonin-gene-related peptide receptor, CALCRL/RAMP1 (Homo sapiens) (UniProt O60894+Q16602); test: CGRP (h) CEREP ligand profiling; type: protein-complex assay; conditions: filed as agonist, Compound concentration 10.0 uM
OCI-AML2 = test: OCI-AML2 cell line Proliferation assay; type: functional, Homo sapiens; conditions: Compound concentration 10 uM; time 3 day
G-361 = test: G361 cell line Proliferation assay; type: functional, Homo sapiens; conditions: Compound concentration 10 uM; time 5 day
SET-2 = test: SET-2 cell line Proliferation assay; type: functional, Homo sapiens; conditions: Compound concentration 10 uM; time 3 day
HCC1395 = test: HCC1395 cell line Proliferation assay; type: functional, Homo sapiens; conditions: Compound concentration 10 uM; time 5 day
MDA-MB-231 = test: MDA_MB_231 cell line Proliferation assay; type: functional, Homo sapiens; conditions: Compound concentration 10 uM; time 5 day
NCI-H596 = test: H596 cell line Proliferation assay; type: functional, Homo sapiens; conditions: Compound concentration 10 uM; time 3 day
HCC1599 = test: HCC1599 cell line Proliferation assay; type: functional, Homo sapiens; conditions: Compound concentration 10 uM; time 5 day
MOLM-13 = test: MOLM-13 cell line Proliferation assay; type: functional, Homo sapiens; conditions: Compound concentration 10 uM; time 3 day
KMS-11 = test: KMS-11 cell line Proliferation assay; type: functional, Homo sapiens; conditions: Compound concentration 10 uM; time 3 day
Daudi = test: Daudi cell line Proliferation assay; type: functional, Homo sapiens; conditions: Compound concentration 10 uM; time 3 day
[7] = target: CREB-binding protein/Histone acetyltransferase p300 (Homo sapiens, UniProt Q09472+Q92793); test: Inhibition of H3K27Ac (DU-145); type: cell-based
[8] = test system: Receptor-type tyrosine-protein kinase FLT3 (Homo sapiens), P36888 [UNDEFINED MUTATION]; conditions: Compound concentration 1000.0 nM
Receptor-type tyrosine-protein kinase FLT3 (Homo sapiens), P36888 [UNDEFINED MUTATION], sequence (P36888 whole entry, looked up, change not shown): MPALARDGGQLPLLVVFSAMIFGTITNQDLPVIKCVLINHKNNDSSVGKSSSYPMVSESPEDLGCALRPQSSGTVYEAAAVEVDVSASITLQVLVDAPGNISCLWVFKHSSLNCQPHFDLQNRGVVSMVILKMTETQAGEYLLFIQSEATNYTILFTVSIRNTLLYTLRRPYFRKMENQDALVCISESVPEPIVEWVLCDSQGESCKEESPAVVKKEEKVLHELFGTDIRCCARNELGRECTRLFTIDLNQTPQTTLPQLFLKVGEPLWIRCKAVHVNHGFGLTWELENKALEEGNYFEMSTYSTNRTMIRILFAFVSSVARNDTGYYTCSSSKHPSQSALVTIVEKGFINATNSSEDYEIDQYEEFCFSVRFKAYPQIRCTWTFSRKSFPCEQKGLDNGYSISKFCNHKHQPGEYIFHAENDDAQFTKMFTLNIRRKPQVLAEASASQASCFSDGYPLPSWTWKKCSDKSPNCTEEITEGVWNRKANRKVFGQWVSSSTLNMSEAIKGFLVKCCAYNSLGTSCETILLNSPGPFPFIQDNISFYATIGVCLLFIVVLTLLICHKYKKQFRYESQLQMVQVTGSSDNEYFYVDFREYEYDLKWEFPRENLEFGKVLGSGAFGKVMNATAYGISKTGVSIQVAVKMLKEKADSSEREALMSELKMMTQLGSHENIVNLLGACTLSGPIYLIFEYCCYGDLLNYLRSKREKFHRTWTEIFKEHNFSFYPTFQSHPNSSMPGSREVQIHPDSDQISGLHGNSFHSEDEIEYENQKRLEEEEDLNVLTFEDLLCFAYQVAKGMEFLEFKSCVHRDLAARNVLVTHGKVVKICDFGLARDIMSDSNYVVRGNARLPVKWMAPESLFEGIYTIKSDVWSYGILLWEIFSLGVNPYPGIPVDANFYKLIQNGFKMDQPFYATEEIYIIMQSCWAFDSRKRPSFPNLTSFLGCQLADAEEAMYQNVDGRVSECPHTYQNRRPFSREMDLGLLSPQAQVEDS

[9] = target: Ephrin type-A receptor 8 (Homo sapiens) (UniProt P29322); conditions: Compound concentration 1000.0 nM
Ephrin type-A receptor 8 (Homo sapiens), sequence (P29322 whole entry): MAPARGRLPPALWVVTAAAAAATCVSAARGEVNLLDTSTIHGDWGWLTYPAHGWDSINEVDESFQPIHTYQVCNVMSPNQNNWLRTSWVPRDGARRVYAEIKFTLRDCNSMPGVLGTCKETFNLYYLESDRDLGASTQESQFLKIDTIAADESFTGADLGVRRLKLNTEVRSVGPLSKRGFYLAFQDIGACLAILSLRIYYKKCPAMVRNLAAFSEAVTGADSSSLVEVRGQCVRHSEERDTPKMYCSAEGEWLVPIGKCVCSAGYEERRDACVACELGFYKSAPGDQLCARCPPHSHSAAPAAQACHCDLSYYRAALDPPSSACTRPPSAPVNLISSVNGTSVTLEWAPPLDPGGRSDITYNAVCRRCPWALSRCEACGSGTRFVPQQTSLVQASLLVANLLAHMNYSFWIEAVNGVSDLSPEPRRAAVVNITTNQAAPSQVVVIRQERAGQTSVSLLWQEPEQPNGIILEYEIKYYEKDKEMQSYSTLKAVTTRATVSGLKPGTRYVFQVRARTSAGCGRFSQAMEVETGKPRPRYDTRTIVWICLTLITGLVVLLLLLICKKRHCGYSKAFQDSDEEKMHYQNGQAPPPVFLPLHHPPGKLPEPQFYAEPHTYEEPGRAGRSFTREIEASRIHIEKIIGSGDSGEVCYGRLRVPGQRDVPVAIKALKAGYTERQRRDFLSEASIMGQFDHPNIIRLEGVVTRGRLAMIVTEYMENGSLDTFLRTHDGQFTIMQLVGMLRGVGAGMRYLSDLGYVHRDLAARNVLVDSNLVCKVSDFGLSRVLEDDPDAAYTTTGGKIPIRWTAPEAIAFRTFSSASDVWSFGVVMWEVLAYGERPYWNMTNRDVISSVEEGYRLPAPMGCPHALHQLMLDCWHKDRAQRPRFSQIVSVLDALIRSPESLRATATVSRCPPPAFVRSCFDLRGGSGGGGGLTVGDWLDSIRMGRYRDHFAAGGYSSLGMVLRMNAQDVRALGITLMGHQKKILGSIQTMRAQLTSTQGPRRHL

[10] = target: Cyclin-dependent kinase 9 (Homo sapiens) (UniProt P50750); conditions: Compound concentration 1000.0 nM
[11] = target: Cyclin-dependent kinase 18 (Homo sapiens) (UniProt Q07002); conditions: Compound concentration 1000.0 nM
Cyclin-dependent kinase 18 (Homo sapiens), sequence (Q07002 whole entry): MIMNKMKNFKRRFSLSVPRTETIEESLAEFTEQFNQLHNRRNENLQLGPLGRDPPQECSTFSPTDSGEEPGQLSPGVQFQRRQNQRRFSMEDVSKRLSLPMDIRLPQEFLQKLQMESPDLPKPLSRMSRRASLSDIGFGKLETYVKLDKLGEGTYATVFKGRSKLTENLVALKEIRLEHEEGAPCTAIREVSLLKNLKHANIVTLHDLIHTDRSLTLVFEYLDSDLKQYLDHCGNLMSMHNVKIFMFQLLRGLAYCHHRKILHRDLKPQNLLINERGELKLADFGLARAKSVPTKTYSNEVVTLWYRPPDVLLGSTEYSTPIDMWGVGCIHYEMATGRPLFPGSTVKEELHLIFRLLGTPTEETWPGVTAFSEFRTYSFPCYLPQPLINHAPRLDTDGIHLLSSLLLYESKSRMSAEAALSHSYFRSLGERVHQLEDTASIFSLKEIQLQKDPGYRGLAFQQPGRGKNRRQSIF

[12] = target: Insulin-like growth factor 1 receptor (Homo sapiens) (UniProt P08069); conditions: Compound concentration 1000.0 nM
[13] = target: Serine/threonine-protein kinase N1 (Homo sapiens) (UniProt Q16512); conditions: Compound concentration 1000.0 nM
Serine/threonine-protein kinase N1 (Homo sapiens), sequence (Q16512 2-942 limits assumed): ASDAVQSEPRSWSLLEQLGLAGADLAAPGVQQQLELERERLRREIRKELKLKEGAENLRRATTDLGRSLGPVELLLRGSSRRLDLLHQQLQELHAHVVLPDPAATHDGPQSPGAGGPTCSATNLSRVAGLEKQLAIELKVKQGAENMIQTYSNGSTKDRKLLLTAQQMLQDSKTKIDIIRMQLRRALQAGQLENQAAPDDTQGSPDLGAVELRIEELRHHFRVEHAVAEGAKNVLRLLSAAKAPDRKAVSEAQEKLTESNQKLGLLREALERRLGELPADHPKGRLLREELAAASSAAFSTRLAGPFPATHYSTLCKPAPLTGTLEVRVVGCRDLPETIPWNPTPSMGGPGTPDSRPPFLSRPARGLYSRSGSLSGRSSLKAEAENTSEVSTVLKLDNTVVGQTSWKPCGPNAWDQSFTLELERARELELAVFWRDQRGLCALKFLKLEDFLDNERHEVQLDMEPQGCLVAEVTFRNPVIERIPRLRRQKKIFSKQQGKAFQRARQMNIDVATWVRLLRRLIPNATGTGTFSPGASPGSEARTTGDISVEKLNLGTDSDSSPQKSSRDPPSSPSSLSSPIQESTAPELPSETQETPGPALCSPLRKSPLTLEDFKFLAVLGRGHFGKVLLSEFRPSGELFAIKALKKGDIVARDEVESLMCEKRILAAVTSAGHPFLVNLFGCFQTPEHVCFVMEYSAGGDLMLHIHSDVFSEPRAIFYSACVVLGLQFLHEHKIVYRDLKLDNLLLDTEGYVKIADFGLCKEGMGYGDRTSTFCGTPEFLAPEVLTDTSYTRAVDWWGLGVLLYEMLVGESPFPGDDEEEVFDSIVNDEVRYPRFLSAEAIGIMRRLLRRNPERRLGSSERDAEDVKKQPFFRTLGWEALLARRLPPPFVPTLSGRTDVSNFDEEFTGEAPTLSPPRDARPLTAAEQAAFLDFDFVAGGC

[14] = target: Tyrosine-protein kinase JAK1 (Homo sapiens) (UniProt P23458); conditions: Compound concentration 1000.0 nM
D(3) dopamine receptor = D(3) dopamine receptor (Homo sapiens, UniProt P35462); test: GPCRScan assay: inhibition of D3; parameters: radioligand conc. used [nm] 0.5 – 1.8, parental cells HEKT
D(3) dopamine receptor, sequence (P35462 whole entry): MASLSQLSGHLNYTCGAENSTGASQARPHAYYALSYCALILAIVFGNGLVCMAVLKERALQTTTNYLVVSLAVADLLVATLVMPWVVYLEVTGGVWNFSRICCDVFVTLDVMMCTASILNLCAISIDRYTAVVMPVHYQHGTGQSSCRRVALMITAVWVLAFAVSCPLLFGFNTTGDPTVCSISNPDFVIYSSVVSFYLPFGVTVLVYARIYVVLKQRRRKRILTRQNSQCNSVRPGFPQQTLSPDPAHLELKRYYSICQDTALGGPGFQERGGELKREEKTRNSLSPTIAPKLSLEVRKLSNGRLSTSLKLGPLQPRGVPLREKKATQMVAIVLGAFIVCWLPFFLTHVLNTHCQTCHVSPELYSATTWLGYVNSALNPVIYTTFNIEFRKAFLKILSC

[15] = target: Adenosine receptor A2b (Homo sapiens) (UniProt P29275); test: A2B (h) CEREP ligand profiling; conditions: filed as antagonist, Compound concentration 10.0 uM
Adenosine receptor A2b (Homo sapiens), sequence (P29275 whole entry): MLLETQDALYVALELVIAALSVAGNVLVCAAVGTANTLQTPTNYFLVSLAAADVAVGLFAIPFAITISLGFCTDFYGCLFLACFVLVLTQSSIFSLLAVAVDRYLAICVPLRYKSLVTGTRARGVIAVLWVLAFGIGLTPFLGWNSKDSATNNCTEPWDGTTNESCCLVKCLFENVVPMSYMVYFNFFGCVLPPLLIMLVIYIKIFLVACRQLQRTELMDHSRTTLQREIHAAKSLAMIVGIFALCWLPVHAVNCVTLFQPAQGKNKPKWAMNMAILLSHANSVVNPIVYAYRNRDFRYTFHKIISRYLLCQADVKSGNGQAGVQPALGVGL

[16] = target: Endothelin receptor type B (Homo sapiens) (UniProt P24530); test: ETB (h) CEREP ligand profiling; conditions: filed as agonist, Compound concentration 10.0 uM
[17] = target: T1, 5-hydroxytryptamine receptor 1A (Homo sapiens) (UniProt P08908); test: 5-HT1A (h) CEREP ligand profiling; conditions: filed as agonist, Compound concentration 10.0 uM
T1 sequence (whole entry): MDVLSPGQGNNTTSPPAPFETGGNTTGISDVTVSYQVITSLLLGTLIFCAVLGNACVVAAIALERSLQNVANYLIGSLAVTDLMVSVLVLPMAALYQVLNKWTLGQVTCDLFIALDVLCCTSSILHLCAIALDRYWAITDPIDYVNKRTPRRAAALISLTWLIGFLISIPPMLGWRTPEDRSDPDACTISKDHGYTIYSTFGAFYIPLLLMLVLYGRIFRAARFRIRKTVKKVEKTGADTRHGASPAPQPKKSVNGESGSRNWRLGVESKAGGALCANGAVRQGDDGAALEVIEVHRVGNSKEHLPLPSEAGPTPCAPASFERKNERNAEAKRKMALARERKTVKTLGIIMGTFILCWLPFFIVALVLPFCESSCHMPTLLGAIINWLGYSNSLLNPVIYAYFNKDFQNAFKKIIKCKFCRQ

SMILES: CNC(=O)Nc1ccc2c(c1)CC[C@@]21OC(=O)N(CC(=O)N(Cc2ccc(F)cc2)[C@@H](C)C(F)(F)F)C1=O [A-485]
- inhibition [1]: 5.6%
- inhibition [2]: 40%
- Cell Proliferation EC50 (U-2940): 1.332 µM
- Cell Proliferation EC50 (SK-MEL-2): >10 µM
- Cell Proliferation EC50 (CHL-1): 0.366 µM
- Cell Proliferation EC50 (AMO1): 1.093 µM
- Cell Proliferation EC50 (NCI-H522): 3.517 µM
- Cell Proliferation EC50 (NCI-H1417): >10 µM
- Cell Proliferation EC50 (4T1): >10 µM
- inhibition [3]: -1.9%
- Cell Proliferation EC50 (MOLT-4): >10 µM
- Cell Proliferation EC50 (NCI-H146): 0.4 µM
- Cell Proliferation EC50 (HCC38): >10 µM
- Cell Proliferation EC50 (COR-L47): >10 µM
- inhibition [4]: 11%
- Cell Proliferation EC50 (LNCaP-Clone-FGC): 0.26 µM
- Cell Proliferation EC50 (NCI-H1373): 2.341 µM
- Cell Proliferation EC50 (RPMI-8226): 0.164 µM
- Cell Proliferation EC50 (COLO-679): 2.258 µM
- Cell Proliferation EC50 (RCK8): 0.5893 µM
- inhibition [5]: 9%
- Cell Proliferation EC50 (KARPAS-299): >10 µM
- Cell Proliferation EC50 (NCI-H661): 7.664 µM
- Cell Proliferation EC50 (NCI-H441): >10 µM
- Cell Proliferation EC50 (NCI-H1836): >10 µM
- Cell Proliferation EC50 (SU-DHL-8): 0.54 µM
- Cell Proliferation EC50 (ULA): 0.5506 µM
- inhibition [6]: 0%
- Cell Proliferation EC50 (OCI-AML2): 2.03 µM
- Cell Proliferation EC50 (G-361): 3.768 µM
- Cell Proliferation EC50 (SET-2): 2.01 µM
- Cell Proliferation EC50 (HCC1395): >10 µM
- Cell Proliferation EC50 (MDA-MB-231): >10 µM
- Cell Proliferation EC50 (NCI-H596): >10 µM
- Cell Proliferation EC50 (HCC1599): 4.8529 µM
- Cell Proliferation EC50 (MOLM-13): 0.35 µM
- Cell Proliferation EC50 (KMS-11): 0.241 µM
- Cell Proliferation EC50 (Daudi): 0.4346 µM

SMILES: CNC(=O)Nc1ccc2c(c1)[C@@]1(CC2)OC(=O)N(CC(=O)N(Cc2ccc(F)cc2)[C@@H](C)C(F)(F)F)C1=O [A-486]
- IC50 [7]: > 10 µM
- residual activity [8]: 99%
- residual activity [9]: 96%
- residual activity [10]: 91%
- residual activity [11]: 100%
- residual activity [12]: 100%
- residual activity [13]: 98%
- residual activity [14]: 93%
- Ki (D(3) dopamine receptor; read-out: Ki): 1.14 µM
- Ki (D(3) dopamine receptor; read-out: pKi (converted)): 1.1 µM
- inhibition [15]: 1%
- inhibition [16]: 8%
- inhibition [17]: 8%
